In patent US5618726A, “Biodegradable azo dyes” (priority 1994, dated 1997):

Tests used:
[1] = tested on: lignin peroxidase (ligninase, LiP); experiment: Oxidation of azo dyes and veratryl alcohol by pure lignin peroxidase; format: biochemical, Phanerochaete chrysosporium; conditions: for Oxidation by ligninase after VA was added: with veratryl alcohol; for Oxidation by ligninase without VA: without veratryl alcohol
Protocol: Lignin peroxidase activity was determined spectrophotometrically at room temperature with VA as substrate. One unit (U) of enzyme activity was defined as 1 μmole of veratryl aldehyde formed-per-min at pH 3. Simultaneous oxidations of azo dyes and veratryl alcohol were measured using a Hewlett-Packard 8452 diode array spectrophotometer operated in the kinetic mode by a Vectra PC equipped with MS™-DO/UV-VIS software. Azo dye concentrations were determined by measuring absorbances at appropriate maxima.
After six days of growth, when the specific activity of ligninase reached about 250 U-per-liter, culture filtrates were separated from mycelial debris by filtration. One liter of culture filtrate was concentrated to about 10 ml using an Amicon PM-10 membrane and desalted in 10 mM sodium acetate buffer (pH 6) using a Sephadex G25 NAP10 column. Ligninase isoenzyme was separated from Mn-dependent peroxidases using a Pharmacia fast protein liquid chromatography system equipped with a Mono Q HR 5/5 column. In this study isoforms H2 and H8 were used.
In vitro studies were limited to dyes 24 and 28. […] FIGS. 6A and 7A show the simultaneous oxidation of azo dyes 24 and 28, respectively, and VA by ligninase. Without VA, azo dye oxidation was limited and terminated more rapidly than in the presence of VA (FIGS. 6B and 7B). When a dye was present in a reaction mixture, the rate of VA oxidation decreased due to an apparent competition for LiPI between these two compounds. The oxidation rate of VA recovered when the azo dye oxidation was completed (FIG. 8). The maximal rate of VA oxidation was about 159 AU (absorption change per-min-per-ml of ligninase solution). Wavelengths of 310 nm for VA, 506 nm for dye 24, and 430 nm for dye 28 oxidations were used in monitoring substrate removal. The oxidation of azo dyes is stimulated by VA in high (200 μM) and low (20 μM) H2 O2 concentrations.

[2] = tested on: Phanerochaete chrysosporium; experiment: Substrate removal / decolorization by P. chrysosporium culture; format: cell-based; conditions: for % Decolorization, P. chrysosporium: 14 days
Protocol: Environ. Microbiol., 1981, 42:290-296), with the addition of 75 mg adenine (6-aminopurine) and 27 mg L-phenylalanine-per-liter. This addition accelerated the growth of the fungus without inhibiting ligninase activity. […] […] Cultures were incubated at 37° C. for 7 to 15 days with shaking (250 rpm). Solid agar media were also employed.

[3] = target: T1, horseradish peroxidase type II (Armoracia rusticana, UniProt P00433); experiment: Oxidation of azo dyes by horseradish peroxidase preparation; format: biochemical; conditions: pH 8, 37° C., H2O2
T1 sequence (P00433 31-338): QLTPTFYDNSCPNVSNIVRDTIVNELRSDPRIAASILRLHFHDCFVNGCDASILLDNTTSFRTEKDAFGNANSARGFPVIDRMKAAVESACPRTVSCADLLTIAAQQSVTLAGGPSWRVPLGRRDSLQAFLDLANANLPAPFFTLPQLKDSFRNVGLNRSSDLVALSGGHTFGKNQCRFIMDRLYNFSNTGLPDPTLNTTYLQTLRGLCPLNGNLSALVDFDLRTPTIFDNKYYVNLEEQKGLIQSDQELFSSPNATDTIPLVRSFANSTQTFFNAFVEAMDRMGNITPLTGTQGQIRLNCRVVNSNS
Protocol: The reaction was started with the addition of 100 μl of 50 mM H2 O2 and was followed for 1 min at 37° C. Controls were run with no addition of H2 O2 or with the addition of the hemeperoxidase inhibitor KCN (final concentration 25 μM).

[4] = tested on: S. chromofuscus A11 extracellular peroxidase; experiment: Oxidation of azo dyes by S. chromofuscus A11 crude enzyme preparation; format: biochemical, Streptomyces chromofuscus A11; conditions: pH 8, 37° C., H2O2
Summary of the method: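 Enzyme from 48 h S. chromofuscus A11 culture supernatant, concentrated, ammonium sulfate-precipitated, dialyzed in 20 mM HEPES pH 8; yellow Sephadex G-25 fraction used. Reaction started with 100 μl 50 mM H2O2, followed 1 min at 37° C; controls without H2O2 or with 25 μM KCN.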

S. rochei A10 = format: cell-based; conditions: streptomyces rochei a10 culture, 336 h
From the text: (§1) Microbiol., 1984, 130:2905-2913.
(§2) Replicate sterile controls also were run in each experiment.

S. diastaticus A13 = format: cell-based; conditions: streptomyces diastaticus a13 culture, 336 h
From the text: as §1, §2

S. diastaticus A12 = format: cell-based; conditions: streptomyces diastaticus a12 culture, 336 h
From the text: as §1, §2

ligninase = experiment: Oxidation of dyes by P. chrysosporium ligninase (crude preparation); format: biochemical, Phanerochaete chrysosporium; conditions: crude enzyme, conditions specific for ligninase
Summary of the method: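 Crude P. chrysosporium ligninase oxidation of dyes, assayed by a previously reported method; conditions as for acid yellow 9, readings every 30 s for up to 15 minutes.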

Mn(II)-peroxidase = experiment: Oxidation of dyes by P. chrysosporium Mn(II)-peroxidase; format: biochemical, Phanerochaete chrysosporium; conditions: crude enzyme, conditions specific for Mn(II)-peroxidase
S. chromofuscus A11 = conditions: streptomyces chromofuscus a11 culture, 336 h
Protocol: as §1, §2
The Streptomyces were grown on the same media and under the same conditions as previously described. […] Thus, the spectrophotometric assays for substrates 1-12 were carried out at their specific isobastic points. Degradation was calculated as percent of substrates removed from culture broth, considering the evaporation factor (around 10%).

[5] = tested on: P. chrysosporium ligninolytic culture; format: cell-based, Phanerochaete chrysosporium; conditions: ten days of growth; for Dye remaining in the cultures, HPLC / Dye remaining in the cultures, Spectrophotometry: initial 200 mg-per-liter; for Bleaching of cultures: 200 mg-per-liter
Protocol: Decolorization of dyes in cultures were monitored at their absorption maxima at pH 4.5, or using HPLC. A Spherisorb ODS2 C18 column was used for HPLC analysis with a sequence of DMS buffer at pH 4.5 and acetonitrile as solvents (5 min 100% DMS, 15 min 100% acetonitrile, 18 min 100% acetonitrile, 19 min 100% DMS, 20 min 100% DMS, 5 min postran 100% DMS). Peaks were monitored at 260 and 450 nm. Results from spectrophotometric and HPLC methods were compared.
The initial concentration of dye was 200 mg-per-liter. Numbers represent mg-per-liter of dye remaining in the cultures.

soil microflora = experiment: Degradation of azo dyes by soil microflora; format: cell-based; conditions: water from a soil sample; for Dye mineralized by soil microflora: 14CO2 trapped; for Dye transformed by soil microflora: carbon source, air flow
Protocol: The degradation of azo dyes by soil microflora in general was evaluated by forming a mixture of azo dyes 33 and 34 with water from a soil sample. The soil sample contained soil microflora that had not adapted to using azo dyes as substrates. A carbon source was added to the mixture and a continuous air flow through the mixture was maintained. The ^14 CO2 released by the mixture was trapped using a 1N NaOH.

P. chrysosporium = experiment: Mineralization of 14C-labeled dyes by shaken cultures; format: cell-based, Phanerochaete chrysosporium
Protocol: (§3) Agitated cultures containing 100,000 to 150,000 dpm of azo dye at a concentration of 200 mg/liter for P. chrysosporium and 50 mg/liter for S. chromofuscus were incubated at 37° C. for 20 days with shaking at 200 rpm. For each mineralization experiment six replicates-per-culture were run for P. chrysosporium and three replicates-per-culture for S. chromofuscus. Each culture flask contained a CO2 trap consisting of a small glass cup connected to the bottom of the rubber stopper. The cup contained 1 ml of 1N NaOH. Samples were taken every 2 days, and after each sampling cultures were flushed with 100% oxygen for 30 s. At the sampling time, the stopper was removed and the NaOH containing trapped CO2 was transferred to a 20-ml scintillation vial, and the cup was then rinsed twice with 1 ml of water. Two ml of rinse water were also transferred to the vial. Finally, 10 ml of Ecolite scintillation cocktail (ICN Biochemicals Inc., Irvine, Calif.) were added to each vial. Vials, after mixing, were stored in the dark for 24 h. The cpm of trapped radioactivity was then determined in a Packard Tri-Carb liquid scintillation analyzer, Model 1500, using the ^14 C quench standards and SIS numbers.
Either a charcoal-containing polyurethane sponge (Bio-Rad Laboratories, Richmond, Calif.) or 2-methoxyethanol was used to trap volatile organic compounds released during mineralization experiments. The sponge (1 cm^3) replaced the 1N NaOH solution in the small glass cap attached to the rubber stopper; other conditions were as before for the ^14 CO2 experiments. For scintillation counting, the charcoal sponges were dissolved in 1 ml of hyamine hydroxide contained in scintillation vials (1M solution in methanol; NEN Research Products, Boston, Mass.) held at 55° C. for 2 h. Ten ml of Ecolite scintillation cocktail were then added and the cpm was measured.
In the second procedure, cultures with CO2 traps were flushed with oxygen for 10 min, and the organic volatiles present were trapped in 10 ml of 2-methoxyethanol mixed with 10 ml Ecolite.
(§4) The removal of radioactivity from the media was determined by measuring the amount of ^14 C label in 0.1 ml of the medium at time 0 and 21 days for each culture. Uninoculated cultures were used as evaporation controls. […] At the end of each mineralization experiment, culture broths were acidified with 5 ml of 1M H3 PO4, fresh 1N NaOH was added to the trap, and the cultures were shaken overnight. No additional releases of ^14 CO2 were observed. The radioactivity assimilated by the cells was measured by solubilizing biomass harvested from each 21-day-old culture in an equal volume of hyamine hydroxide solution. Before solubilization, cells were washed three times with 50 ml of distilled water to remove adsorbed dyes. Ecolite 10 ml was added to the mixture, which was vortexed vigorously. To increase counting efficiency, the solution of biomass-hyamine-scintillation cocktail was further diluted 10 to 20 times with fresh Ecolite before counting.

[6] = tested on: Streptomyces chromofuscus; experiment: as above; format: cell-based
Protocol: as §3, §4

[7] = beginning concentration 100 ppm
[8] = beginning concentration 150 ppm
[9] = beginning concentration 200 ppm
[10] = beginning concentration 300 ppm

## COc1ccc(CO)cc1OC [Veratryl alcohol, 3,4-dimethoxy benzyl alcohol, reference compound]
[1]; absorption change per-min-per-ml of ligninase solution, 310 nm
  Maximal rate of VA oxidation by ligninase: about 159 AU

## O=S(=O)(O)c1ccc(N=Nc2ccc(O)c(Cl)c2)cc1 [compound 13]
[2]; [7]
  Concentration of substrate after ten days cultivation with P. chrysosporium: 7.734 ppm
[2]; [8]
  Concentration of substrate after ten days cultivation with P. chrysosporium: 20.776 ppm
[2]; [9]
  Concentration of substrate after ten days cultivation with P. chrysosporium: 28.216 ppm
[2]; [10]
  Concentration of substrate after ten days cultivation with P. chrysosporium: 20.096 ppm
[2]; initial concn 150 ppm
  % Decolorization, P. chrysosporium: 92%
[2]; initial concn 300 ppm
  % Decolorization, P. chrysosporium: 88%
[3]
  Oxidation rate of azo dyes, Horseradish peroxidase: 0.10 μmoles per minute per ml
[4]
  Oxidation rate of azo dyes, S. chromofuscus peroxidase: 0.13 μmoles per minute per ml
S. rochei A10
  Degradation (%) after Streptomyces cultivation, strain A10: 2%
S. diastaticus A13
  Degradation (%) after Streptomyces cultivation, strain A13: 1%
S. diastaticus A12
  Degradation (%) after Streptomyces cultivation, strain A12: 1%
ligninase
  Oxidation rate of azo dyes, P. chrysosporium Ligninase: 0.88 μmoles per minute per ml
Mn(II)-peroxidase
  Oxidation rate of azo dyes, P. chrysosporium Mn-peroxidase: 0.26 μmoles per minute per ml
S. chromofuscus A11
  Degradation (%) after Streptomyces cultivation, strain A11: 5%

## CCN(CC)c1ccc(N=Nc2ccc(S(=O)(=O)O)cc2)cc1 [compound 15]
[2]; [7]
  Concentration of substrate after ten days cultivation with P. chrysosporium: 1.901 ppm
[2]; [8]
  Concentration of substrate after ten days cultivation with P. chrysosporium: 10.589 ppm
[2]; [9]
  Concentration of substrate after ten days cultivation with P. chrysosporium: 17.931 ppm
[2]; [10]
  Concentration of substrate after ten days cultivation with P. chrysosporium: 17.791 ppm
[2]; initial concn 150 ppm
  % Decolorization, P. chrysosporium: 38%
[2]; initial concn 300 ppm
  % Decolorization, P. chrysosporium: 27%
[3]
  Oxidation rate of azo dyes, Horseradish peroxidase: 0.12 μmoles per minute per ml
[4]
  Oxidation rate of azo dyes, S. chromofuscus peroxidase: 0.17 μmoles per minute per ml
S. rochei A10
  Degradation (%) after Streptomyces cultivation, strain A10: 2%
S. diastaticus A13
  Degradation (%) after Streptomyces cultivation, strain A13: 1%
S. diastaticus A12
  Degradation (%) after Streptomyces cultivation, strain A12: 1%
ligninase
  Oxidation rate of azo dyes, P. chrysosporium Ligninase: 0.75 μmoles per minute per ml
Mn(II)-peroxidase
  Oxidation rate of azo dyes, P. chrysosporium Mn-peroxidase: 0.23 μmoles per minute per ml
S. chromofuscus A11
  Degradation (%) after Streptomyces cultivation, strain A11: 3%

## O=S(=O)(O)c1ccc(N=Nc2ccc(N=Nc3c(O)ccc4ccccc34)c(S(=O)(=O)O)c2)cc1 [compound 24]
[5]
  Dye remaining in the cultures, HPLC: 4.43 mg-per-liter
  Dye remaining in the cultures, Spectrophotometry: 1.11 mg-per-liter
  Bleaching of cultures: completely bleached
[1]
  Oxidation by ligninase after VA was added: total decolorization
  Oxidation by ligninase without VA: limited extent

## O=C(O)c1nn(-c2ccc(S(=O)(=O)O)cc2)c(O)c1N=Nc1ccc(S(=O)(=O)O)cc1 [compound 28]
[5]
  Dye remaining in the cultures, HPLC: 3.00 mg-per-liter
  Dye remaining in the cultures, Spectrophotometry: 2.42 mg-per-liter
  Bleaching of cultures: completely bleached
[1]
  Oxidation by ligninase after VA was added: total decolorization
  Oxidation by ligninase without VA: limited extent

## Nc1ccc(N=N[14c]2[14cH][14cH][14c](S(=O)(=O)O)[14cH][14cH]2)cc1S(=O)(=O)O [compound 33]
Soil microflora
  Dye mineralized by soil microflora: 1.1%
  Dye transformed by soil microflora: 3.4%

## COc1cc(N=N[14c]2[14cH][14cH][14c](S(=O)(=O)O)[14cH][14cH]2)ccc1O [compound 34]
Soil microflora
  Dye mineralized by soil microflora: 14%
  Dye transformed by soil microflora: 46%
P. chrysosporium; 21 days' growth, 200 mg/liter
  Percentage of radioactivity recovered in CO2, P. chrysosporium: 25.7%
  Percentage of radioactivity recovered in biomass (cells), P. chrysosporium: 5.2%
  Percentage of radioactivity removed from the medium, P. chrysosporium: 31.7%
P. chrysosporium; first 10 days of incubation
  Mineralization rate relative to dyes 33 and 35: twice as fast
[6]; 21-day incubation
  Mineralization by the streptomycetes: mineralized
[6]; 21 days growth of S. chromofuscus
  Radioactivity accounted for by dye absorbed by the cells: 9%
[6]; 21 days' growth, 50 mg/liter
  Percentage of radioactivity recovered in CO2, Streptomyces chromofuscus: ~4%
  Percentage of radioactivity recovered in biomass (cells), Streptomyces chromofuscus: 4.6%
